This note sets out measurements from patent publication US20100009956A1, “NOVEL SUBSTITUTED PYRIMIDINES AS CYSTEINE PROTEASE INHIBITORS” (Glaxo Group Limited , a corporation, priority 2006, published 2010).

Holding throughout (format): biochemical
The target of one assay is T1, Cathepsin K (Homo sapiens, UniProt P43235).
T1 sequence (P43235 115-329): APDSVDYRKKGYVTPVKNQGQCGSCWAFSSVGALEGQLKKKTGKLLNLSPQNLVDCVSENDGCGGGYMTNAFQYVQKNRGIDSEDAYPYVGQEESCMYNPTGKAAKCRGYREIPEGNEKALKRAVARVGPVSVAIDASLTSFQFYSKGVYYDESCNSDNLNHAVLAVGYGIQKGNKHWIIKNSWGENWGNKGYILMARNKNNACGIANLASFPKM
Put plainly: Cathepsin K enzymatic assay (assay 1). Conditions: human recombinant enzyme, Z-FR-AFC substrate, pH 5.5. The procedure: (§1) Assay 1) Determination of Falcipain-2, Falcipain-3, Vivapain-2, Cathepsin K Cathepsin S, Cathepsin L, and Cathepsin B Proteolytic Catalytic Activity
(§2) Assays for Falcipain-2, Falcipain-3, and Vivapain-2 are carried out with parasitic recombinant enzymes. Cathepsins K, S, L, and B are carried out with human recombinant enzymes. Standard assay conditions for the determination of kinetic constants used a fluorogenic peptide substrate, typically H-D-VLR-AFC (Falcipain-2, Falcipain-3, Vivapain-2), Z-FR-AFC (Cathepsin K, L, B), or KQKLR-AMC (Cathepsin S) and are determined in 100 mM sodium acetate, pH 5.5, containing 10 mM DTT and 0.5 mM CHAPS (Falcipain-2, Falcipain-3, Vivapain-2), and 100 mM sodium acetate, pH 5.5, containing 5 mM L-cysteine, 1 mM CHAPS and 5 mM EDTA (Cathepsin K, L, B), or 50 mM MES, pH 6.5, containing 0.5 mM CHAPS, 10 mM L-CYS, 5 mM EDTA (Cathepsin S). Stock substrate solutions are prepared at 20 mM in DMSO. The activity assays contained 30 uM substrate (Falcipain-2, Falcipain-3, Vivapain-2), 20 uM substrate (Cathepsin K), 25 uM substrate (Cathepsin B), 5 uM substrate (Cathepsin L), and 30 uM substrate (Cathepsin S). All assays contained 1% DMSO. […] All assays are conducted at ambient temperature as end point assays being quenched after 60 minutes with the exception of Cathepsin S at 90 minutes, with 16.6 uM E-64 in 1% DMSO. Product formation (AFC or AMC) is determined from fluorescence (excitation at 405 nm; emission at 530 nm, AFC, or excitation at 360 nm; emission at 460 nm, AMC) monitored with a LJL Aquest (Molecular Devices) fluorescent plate reader. In the case of kinetic reads (used in mechanism of action studies), the reaction is not quenched but is read in the plate reader every 3 minutes for approximately 90 minutes. In addition, the mechanism of action studies for Falcipain-2 utilize Z-LR-AMC as the substrate. Product formation is determined from the fluorescence of AMC, measured with a LJL Acquest (Molecular Devices) fluorescent plate reader (excitation at 360 nm; emission at 460 nm).
(§3) Potential inhibitors are evaluated using the quenched read (endpoint) method. Assays are carried out in the presence of variable concentrations of test compound. Reactions are initiated by addition of enzyme and substrate to wells containing inhibitor stamped in 100% DMSO. For endpoint assays, the reaction is quenched with the addition of E64. Dose response data is fit to an IC50 curve with preset fitting tools according to equation 1:
(§4) y=a+(b−a)/(1+(10^x/10^c)^d) (1)
(§5) where y is the response at a particular inhibitor concentration x, a is the minimum response value, b is the maximum response value, c is the IC50, and d is the slope of the IC50 curve. Assuming the compound is a competitive inhibitor, the apparent KI can be calculated from IC50, as shown in equation 2: […]

The target of another assay is Cathepsin S (Homo sapiens, UniProt P25774). Nature of the assay: Cathepsin S enzymatic assay (assay 1). Conditions: human recombinant enzyme, KQKLR-AMC substrate, pH 6.5. The procedure:
as §1, §2, §3, §4, §5

The target in a further assay is Falcipain-2 (Plasmodium falciparum, UniProt Q8I6U4). Nature of the assay: Falcipain-2 enzymatic assay (assay 1). The method in brief:
(§6)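 Recombinant parasite enzyme with 30 uM H-D-VLR-AFC in 100 mM sodium acetate pH 5.5, 10 mM DTT, 0.5 mM CHAPS, 1% DMSO, ambient temperature. Endpoint after 60 minutes, quenched with 16.6 uM E-64; AFC fluorescence (ex 405/em 530). IC50 from four-parameter fit, apparent KI assuming competitive inhibition.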

The target in another assay is Falcipain-3 (Plasmodium falciparum, UniProt Q8IIL0). Nature of the assay: Falcipain-3 enzymatic assay (assay 1). Put shortly: as §6
Chain of Falcipain-3 (Q8IIL0 243-492): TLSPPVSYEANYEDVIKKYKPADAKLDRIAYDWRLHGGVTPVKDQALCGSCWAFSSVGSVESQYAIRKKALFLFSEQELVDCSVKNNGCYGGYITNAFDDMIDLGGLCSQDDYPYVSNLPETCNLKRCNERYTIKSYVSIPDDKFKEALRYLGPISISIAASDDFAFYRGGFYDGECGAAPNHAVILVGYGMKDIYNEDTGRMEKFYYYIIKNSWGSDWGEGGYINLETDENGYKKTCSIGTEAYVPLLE
The mark [1] stands for this setting: parasitic recombinant enzyme, H-D-VLR-AFC substrate, pH 5.5, endpoint read, read-out: Falcipain-3 IC50.

Counter-ions that a name gives are not always drawn. Like-named read-outs stand apart in the source and are kept apart here.

Chain of Cathepsin S (P25774 115-331): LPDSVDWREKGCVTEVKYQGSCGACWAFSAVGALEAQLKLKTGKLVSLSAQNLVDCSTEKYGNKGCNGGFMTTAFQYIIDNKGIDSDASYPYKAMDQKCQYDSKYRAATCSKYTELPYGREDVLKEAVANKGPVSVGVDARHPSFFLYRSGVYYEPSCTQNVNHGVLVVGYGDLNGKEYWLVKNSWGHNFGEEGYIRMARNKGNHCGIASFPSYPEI
Chain of Falcipain-2 (Q8I6U4 244-484): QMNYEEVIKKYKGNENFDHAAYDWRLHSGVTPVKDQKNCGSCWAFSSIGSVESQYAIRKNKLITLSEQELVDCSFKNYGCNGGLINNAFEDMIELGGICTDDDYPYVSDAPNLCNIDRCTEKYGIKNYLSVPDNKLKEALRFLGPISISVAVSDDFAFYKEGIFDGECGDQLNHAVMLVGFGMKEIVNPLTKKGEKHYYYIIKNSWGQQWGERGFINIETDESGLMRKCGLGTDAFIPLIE

Consider `CC1CCC(N(NC(=O)c2ccc(CN3CCC(N4CCN(C)CC4)CC3)cc2)c2nc(C#N)ncc2Br)C1` (mixture of isomers) [Example 4, N′-(5-bromo-2-cyano-4-pyrimidinyl)-N′-(3-methylcyclopentyl)-4-{[4-(4-methyl-1-piperazinyl)-1-piperidinyl]methyl}benzohydrazide trifluoroacetate], for which the IC50 was under 1.5 nM at Cathepsin K, under 1000 nM on Cathepsin S, under 1 nM on Falcipain-2 and 1 to 2.5 nM on Falcipain-3.

Turning to `CC1CCC(N(NC(=O)c2ccc(CN3CCN(CC4CCN(C)CC4)CC3)cc2)c2nc(C#N)ncc2Br)C1` (mixture of isomers) [Example 5, N′(5-bromo-2-cyano-4-pyrimidinyl)-N′-(3-methylcyclopentyl)-4-({4-[(1-methyl4-piperidinyl)methyl]-1-piperazinyl}methyl)benzohydrazide trifluoroacetate], the IC50 at Cathepsin K is under 1.5 nM; at Cathepsin S, under 1000 nM; on Falcipain-2 it was under 1 nM; against Falcipain-3, 15 to 150 nM.

Turning to `CN1CCN(Cc2ccc(C(=O)NN(c3nc(C#N)ncc3Br)C3CCCC3)cc2)CC1` [Example 1, N′-(5-bromo-2-cyano-4-pyrimidinyl)-N′-cyclopentyl-4-[(4-methyl-1-piperazinyl)methyl]benzohydrazide trifluoroacetate], the IC50 on Cathepsin K is under 1.5 nM; on Cathepsin S, under 200 nM; at Falcipain-2 it was under 1 nM.

Turning to `CN1CCN(C2CCN(Cc3ccc(C(=O)NN(c4nc(C#N)ncc4Br)C4CCCCC4)cc3)CC2)CC1` [Example 17, N′-(5-bromo-2-cyano-4-pyrimidinyl)-N′-cyclohexyl-4-{[4-(4-methyl-1-piperazinyl)-1-piperidinyl]methyl}benzohydrazide trifluoroacetate], the IC50 was under 1.5 nM at Cathepsin K, under 1000 nM at Cathepsin S, under 1 nM against Falcipain-2 and 2.5 to 15 nM at Falcipain-3.

With `CN1CCCC(CN2CCN(Cc3cccc(C(=O)NN(c4nc(C#N)ncc4Br)C4CCCCC4)c3)CC2)C1` (centres unmarked) [Example 27, N′-(5-bromo-2-cyano-4-pyrimidinyl)-N′-cyclohexyl-3-({4-[(1-methyl-3-piperidinyl)methyl]-1-piperazinyl}methyl)benzohydrazide trifluoroacetate], the IC50 is under 1.5 nM on Cathepsin K, under 1000 nM on Cathepsin S, under 1 nM at Falcipain-2 and 2.5 to 15 nM at Falcipain-3.

On to `CN1CCN(C2CCN(Cc3ccc(C(=O)NN(c4nc(C#N)ncc4Cl)C4CCCCC4)cc3)CC2)CC1` [Example 40, N′-(5-chloro-2-cyano-4-pyrimidinyl)-N′-cyclohexyl-4-{[4-(4-methyl-1-piperazinyl)-1-piperidinyl]methyl}benzohydrazide], for which the IC50 at Cathepsin K is under 1.5 nM; at Cathepsin S, under 200 nM; on Falcipain-2, under 1 nM; on Falcipain-3 (setting [1]) it was 2.5 to 15 nM.

In the case of `CN1CCN(C2CCN(Cc3ccc(C(=O)NN(c4nc(C#N)ncc4Cl)C4CCCCC4)cc3)CC2)CC1` [Example 41, N′-(5-chloro-2-cyano-4-pyrimidinyl)-N′-cyclohexyl-4-{([4-(4-methyl-1-piperazinyl)-1-piperidinyl]methyl}benzohydrazidedihydrochloride], the figures for the IC50 at Cathepsin K and on Cathepsin S were under 1.5 nM and under 200 nM, respectively.

On to `CN1CCN(Cc2ccc(-c3ccc(C(=O)NN(c4nc(C#N)ncc4Br)C4CCCCC4)cn3)cc2)CC1` [Example 44, N′-(5-bromo-2-cyano-4-pyrimidinyl)-N′-cyclohexyl-6-{4-[(4-methyl-1-piperazinyl)methyl]phenyl}-3-pyridinecarbohydrazide trifluoroacetate], for which the IC50 at Cathepsin K was under 1.5 nM; on Cathepsin S it was under 200 nM; on Falcipain-2, under 1 nM; against Falcipain-3, 2.5 to 15 nM.

Regarding `CN1CCN(Cc2ccc(-c3ccc(C(=O)NN(c4nc(C#N)ncc4Br)C4CCCC4)cn3)cc2)CC1` [Example 46, N′-(5-bromo-2-cyano-4-pyrimidinyl)-N′-cyclopentyl-6-{4-[(4-methyl-1-piperazinyl)methyl]phenyl}-3-pyridinecarbohydrazide trifluoroacetate], the IC50 was under 1.5 nM on Cathepsin K, under 200 nM at Cathepsin S, under 1 nM on Falcipain-2 and 15 to 150 nM against Falcipain-3.

As for `CN1CCN(Cc2cccc(-c3cncc(C(=O)NN(c4nc(C#N)ncc4Br)C4CCCCC4)c3)c2)CC1` [Example 47, N′-(5-bromo-2-cyano-4-pyrimidinyl)-N′-cyclohexyl-5-{3-[(4-methyl-1-piperazinyl)methyl]phenyl}-3-pyridinecarbohydrazide trifluoroacetate], the IC50 on Cathepsin K is under 1.5 nM; on Cathepsin S it was under 200 nM; at Falcipain-2 it was under 1 nM; on Falcipain-3, 2.5 to 15 nM.

In the case of `CC(=O)N1CCC(N(NC(=O)c2ccc(CN3CCC(C(=O)N4CCN(C)CC4)CC3)cc2)c2nc(C#N)ncc2Br)CC1` [Example 49, N′-(1-acetyl-4-piperidinyl)-N′-(5-bromo-2-cyano-4-pyrimidinyl)-4-({4-[(4-methyl-1-piperazinyl)carbonyl]-1-piperidinyl}methyl)benzohydrazide trifluoroacetate], the half-maximal inhibitory concentration (IC50) on Cathepsin K was under 17 nM; at Cathepsin S it was under 200 nM; on Falcipain-2, under 1 nM; against Falcipain-3 it was 15 to 150 nM.

`CCN(Cc1ccc(C(=O)NN(c2nc(C#N)ncc2Cl)C2CCCC2)cc1)C1CCCCC1` [Example 69, N′-(5-chloro-2-cyano-4-pyrimidinyl)-4{[cyclohexyl(ethyl)amino]methyl}-N′-cyclopentylbenzohydrazide trifluoroacetate]: the IC50 on Cathepsin S is under 200 nM; against Falcipain-2, under 1 nM; on Falcipain-3, 2.5 to 15 nM.

For `N#Cc1ncc(Cl)c(N(NC(=O)c2ccc(CN3CCC(O)CC3)cc2)C2CCCC2)n1` [Example 70, N′-(5-chloro-2-cyano-4-pyrimidinyl)-N′-cyclopentyl-4-[(4-hydroxy-1-piperidinyl)methyl]benzohydrazide trifluoroacetate], the IC50 on Cathepsin S is under 200 nM; against Falcipain-2 it was under 1 nM; at Falcipain-3 it was 2.5 to 15 nM.

As for `CN(Cc1ccc(C(=O)NN(c2nc(C#N)ncc2Cl)C2CCCC2)cc1)C(C)(C)Cc1ccccc1` [Example 71, N′-(5-chloro-2-cyano-4-pyrimidinyl)-N′-cyclopentyl-4-{[(1,1-dimethyl-2-phenylethyl)(methyl)amino]methyl}benzohydrazide trifluoroacetate], the IC50 on Cathepsin S is under 200 nM; against Falcipain-2, under 1 nM; against Falcipain-3, 2.5 to 15 nM.

`CC(C)N(Cc1ccc(C(=O)NN(c2nc(C#N)ncc2Cl)C2CCCC2)cc1)C(C)C` [Example 72, 4-{[bis(1-methylethyl)amino]methyl}-N′-(5-chloro-2-cyano-4-pyrimidinyl)-N′-cyclopentylbenzohydrazide trifluoroacetate]: the IC50 was under 200 nM at Cathepsin S, under 1 nM against Falcipain-2 and 2.5 to 15 nM at Falcipain-3.

On to `CCN(CCCNC(=O)OC(C)(C)C)Cc1ccc(C(=O)NN(c2nc(C#N)ncc2Cl)C2CCCC2)cc1` [Example 81, 1,1-dimethylethyl{3-[[(4-{[2-(5-chloro-2-cyano-4-pyrimidinyl)-2-cyclopentylhydrazino]carbonyl}phenyl)methyl](ethyl)amino]propyl}carbamate], for which the half-maximal inhibitory concentration (IC50) at Cathepsin S was under 200 nM; on Falcipain-2, under 1 nM; on Falcipain-3 (setting [1]) it was 2.5 to 15 nM.

The term IC50 denotes the point on the concentration scale where inhibition reaches its midpoint.
